This assay relates to PANC-1 cells. In words: cell viability assay in PANC-1 cells (compound alone, + 100 ng/ml TNFa, + 300 ng/ml TRAIL). The format is cell-based.
[1] abbreviates: Homo sapiens, PANC-1, compound alone, Tables 6-10, read-out: IC50 (μM) in cell viability assay in PANC-1 cells: Compound alone.
Setting [2] is: with 100 ng/ml TNFa, Tables 6-10, read-out: IC50 (μM) in cell viability assay in PANC-1 cells: Compound + 100 ng/ml TNFa.
Where [3] appears, read: with 300 ng/ml TRAIL, Tables 6-10, read-out: IC50 (μM) in cell viability assay in PANC-1 cells: Compound + 300 ng/ml TRAIL.
The mark [4] stands for this setting: Homo sapiens, PANC-1, compound alone, Tables 15-18, read-out: IC50 (uM) in cell viability assay in PANC-1 cells: Cmpnd alone.
Where [5] appears, read: with 100 ng/ml TNFa, Tables 15-18, read-out: IC50 (uM) in cell viability assay in PANC-1 cells: Cmpnd + 100 ng/ml TNFa.
Where [6] appears, read: with 300 ng/ml TRAIL, Tables 15-18, read-out: IC50 (uM) in cell viability assay in PANC-1 cells: Cmpnd + 300 ng/ml TRAIL.

Molecules are shown by their SMILES. Read-outs that look alike come from different tables or passages of the source. Some results are limits rather than exact numbers.

For `CN[C@@H](C)C(=O)N[C@H](C(=O)N1CCC[C@H]1C(=O)N[C@H]1c2ccccc2C[C@H]1OCC#CC#CCO[C@@H]1Cc2ccccc2[C@@H]1NC(=O)[C@@H]1CCCN1C(=O)[C@@H](NC(=O)[C@H](C)NC)C(C)(C)C)C(C)(C)C` [Compound 119], the IC50 is over 1 µM under setting [1], 0.0014 µM under setting [2] and 0.0018 µM under setting [3].

For `CNC(C)C(=O)Nc1nc(-c2ccccc2)c(C(=O)NC[C@@H](NC(=O)[C@@H]2CCCN2C(=O)[C@@H](NC(=O)[C@H](C)NC)C(C)(C)C)c2ccccc2)s1` (stereo partly drawn) [Compound 192], the IC50 runs as follows: under setting [1], over 1 µM; under setting [2], 0.659 µM; under setting [3], over 1 µM.

In the case of `CN[C@@H](C)C(=O)N[C@H](C(=O)N1C[C@@H](NC(=O)c2ccc3cc(C(=O)NCC[C@H](NC(=O)[C@@H](NC(=O)[C@H](CO)NC)C4CCCCC4)C(=O)N[C@H](C)C(C)C)ccc3c2)C[C@H]1C(=O)N[C@@H]1CCCc2ccccc21)C(C)(C)C` [Compound H-10], the IC50 is over 1 µM under setting [4], 0.001 µM under setting [5] and 0.0009 µM under setting [6].

Consider `CN[C@@H](C)C(=O)N[C@@H](CCCCCC[C@H](NC(=O)[C@H](C)NC)C(=O)N1c2ccccc2C[C@H]1C(=O)N[C@H](C)c1ccccc1)C(=O)N1c2ccccc2C[C@H]1C(=O)N[C@H](C)c1ccccc1` [Compound 92], for which the IC50 was over 1 µM under setting [1], 0.547 µM under setting [2] and 0.798 µM under setting [3].

On to `CC[C@H](NC(=O)[C@H](C)NC)C(=O)N[C@@H](CCNC(=O)c1cccc(C(=O)N[C@H]2C[C@@H](C(=O)N[C@@H]3CCCc4ccccc43)N(C(=O)[C@@H](NC(=O)[C@H](C)NC)C(C)(C)C)C2)c1)C(=O)N[C@H](C)c1ccccc1` [Compound 177], for which the IC50 under setting [1] was over 1 µM, the IC50 under setting [2] worked out at 0.035 µM and the IC50 under setting [3] worked out at 0.05 µM.

In the case of `CN[C@@H](C)C(=O)N[C@H](C(=O)N1CCC[C@H]1CN1CCC[C@H]1C(c1ccccc1)c1ccccc1)[C@@H](C)OCC#CC#CCO[C@H](C)[C@H](NC(=O)[C@H](C)NC)C(=O)N1CCC[C@H]1CN1CCC[C@H]1C(c1ccccc1)c1ccccc1` [Compound 81], the IC50 is over 1 µM under setting [1], 0.155 µM under setting [2] and 0.196 µM under setting [3].

For the compound `CN[C@@H](C)C(=O)NC(C(=O)N1CCC[C@H]1C(=O)NC1CCCc2ccccc21)c1ccc(CCc2ccc([C@H](NC(=O)[C@H](C)NC)C(=O)N3CCC[C@H]3C(=O)NC3CCCc4ccccc43)cc2)cc1` (stereo partly drawn) [Compound P2-35], the IC50 is, setting by setting: under setting [4], over 1 µM; under setting [5], 0.007 µM; under setting [6], 0.007 µM.

Consider `CN[C@@H](C)C(=O)N[C@@H](CCCCCC[C@H](NC(=O)[C@H](C)NC)C(=O)N1C[C@@H](F)C[C@H]1C(=O)N[C@@H]1CCCc2ccccc21)C(=O)N1C[C@@H](F)C[C@H]1C(=O)N[C@@H]1CCCc2ccccc21` [Compound 100], for which the IC50 by setting is: under setting [1], over 1 µM; under setting [2], 0.057 µM; under setting [3], 0.052 µM.

In the case of `CN[C@@H](C)C(=O)N[C@H](C(=O)N[C@@H](CCNC(=O)c1cccc(C(=O)N[C@H]2C[C@@H](C(=O)N[C@@H]3CCCc4ccccc43)N(C(=O)[C@@H](NC(=O)[C@H](C)NC)C3CCCCC3)C2)c1)C(=O)N[C@H](C)C(C)C)C(C)C` [Compound 181], the IC50 reads like this: under setting [1], over 1 µM; under setting [2], 0.037 µM; under setting [3], 0.072 µM.

In the case of `CN[C@@H](C)C(=O)N[C@H](C(=O)N[C@@H](CCNC(=O)c1cccc(C(=O)N[C@H]2C[C@@H](C(=O)N[C@@H]3CCCc4ccccc43)N(C(=O)[C@@H](NC(=O)[C@H](C)NC)C(C)(C)C)C2)c1)C(=O)N[C@H](C)c1ccccc1)C(C)(C)C` [Compound 174], the IC50 was over 1 µM under setting [1], 0.0069 µM under setting [2] and 0.0107 µM under setting [3].

With `CN[C@@H](C)C(=O)N[C@@H](CCNC(=O)c1ccc(-c2ccc(C(=O)NCC[C@H](NC(=O)[C@H](C)NC)C(=O)N3CCC[C@H]3C(=O)N[C@@H]3CCCc4ccccc43)cc2)cc1)C(=O)N1CCC[C@H]1C(=O)N[C@@H]1CCCc2ccccc21` [Compound P2-50], the IC50 reads like this: under setting [4], over 1 µM; under setting [5], 0.067 µM; under setting [6], 0.019 µM.

Source of the values: patent publication US20130344026A1, “Dimeric Smac Mimetics” (priority 2009, published 2013).
